We go through ten molecules from article PMC11655744, “Antioxidant, anti-acetylcholinesterase, and anti-amyloid-β peptide aggregations of hispolon and its analogs in vitro and improved learning and memory functions in scopolamine-induced ICR mice” (Botanical Studies, 2024).

The IC50 is the point on the concentration scale where inhibition reaches its midpoint.

Values joined by “and” are separate entries in the source; they are usually repeats but may differ in a detail not shown here. Equal values may be shown once. Where a name gives a salt, the structure may show the parent alone.

The nature of data set [1]: DPPH radical scavenging activity. It is filed as biochemical. To be noted: 100 µM DPPH in methanol, 20 min, A517nm; IC50 from linear equation of 20, 50 and 100 µM; read-out: IC50 of DPPH radical scavenging activities. How it is done:
The 60 µL of different concentrations of samples (10, 20, 50, 100, 150, and 200 µM diluted with DMSO) were added into a 96-well plate, and then 140 µl of 100 µM DPPH in methanol was added under light protection for 20 min. The changes of absorbance at A517nm were measured, and DMSO was used instead of a sample solution in the control group. The scavenging activity of the DPPH radical (%) was calculated with the following equation: (Control-sample)/control ×100%.
A general note: The DPPH test is a chemical assay of radical scavenging.

The next data set addresses T1, recombinant human AChE (Homo sapiens, UniProt P22303).
T1 construct: purchased R&D Systems Inc. (Minneapolis, MN)
Put plainly: biochemical. To be noted: pH 7.5, tested at 125 to 1000 µM, read-out: AChE inhibitory activity IC50. As for the experimental part: The AChE substrates of acetylthiocholine iodide was added for another 15 min, and the DTNB coupling reagents was added and the mixture was recorded at 405 nm for 10 min. The DMSO instead of sample solution was used as the blank. AChE inhibition (%) was calculated by [(A405blank-A405sample)/(A405blank)] ×100%.

For a further data set, the target named is T2, Aβ1-42 peptide (Homo sapiens, UniProt P05067).
T2 construct: The preparation of Aβ1–42 peptide stock solution was following the previous report; purchased Sigma Chemical Co. (St. Louis, MO)
T2 sequence (P05067 672-713): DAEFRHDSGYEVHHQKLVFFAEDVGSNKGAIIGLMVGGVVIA
Nature of the data set: Anti-Aβ1-42 peptide aggregation, thioflavin T binding assay. It is filed as biochemical. To be noted: 10 µM Aβ1-42, 10 µM ThT, 37 °C, 24 h; read-out: IC50 of anti-Aβ1-42 peptide aggregations. How it is done: The DMSO was used instead of the sample solution as the control. […] The inhibition against Aβ aggregation (%) was calculated as [(Econtrol,24−h-Econtrol,0−h)- (Esample,24−h-Esample,0−h)/(Econtrol,24 h-Econtrol,0−h)] ×100%.

Data set [2] deals with RAW264.7 macrophages. Put plainly: Anti-nitric oxide productions in lipopolysaccharide-treated RAW264.7 macrophages (Griess). It is filed as cell-based. To be noted: 2.5 µM, 24 h pre-treatment, then LPS 500 ng/ml 24 h. As for the experimental part: (§1) The 5 × 10^4 macrophages/well were seeded in the 96-well plate and cultured for 24 h at 37 °C under the humidified atmosphere and 5% CO2. The cells were pre-treated with hispolon (No.1, 2.5, 5, 10, and 20 µM), No.2, No.3, No.4, and No.5 (5, 10, and 20 µM), and No.6 and No.7 (5, 10, 20, and 40 µM) for 24 h. The LPS (500 ng/ml) was then added to the pre-treated RAW264.7 macrophages for another 24 h for nitric oxide productions. For nitric oxide productions in LPS-treated RAW264.7 macrophages, the culture supernatant (100 µl) was mixed with 100 µl of Griess reagent at room temperature for 30 min. The absorbance at 550 nm was measured and expressed as relative nitric oxide productions (the control was recognized as 100%). […] The sample pretreated-RAW264.7 cells were stained with MTT solution (500 µg/mL), which the formazan was dissolved by 200 µL DMSO, and the absorbance at 570 nm was measured, and was expressed relative to the blank (%).
Background: The Griess reaction detects nitrite, a stable product of nitric oxide.

The test system of data set [3] is RAW264.7 macrophages. Put plainly: Cell viability of RAW264.7 macrophages (MTT). How it is done: as §1
The subject of data set [4] is SH-SY5Y neuroblastoma cells. Nature of the data set: Neuroprotective activity in methylglyoxal-treated SH-SY5Y neuronal cells (MTT, morphology). It is filed as cell-based. To be noted: for cell viabilities of methylglyoxal-treated SH-SY5Y cells compared to the control: 24 h pre-treatment, then 500 µM methylglyoxal 24 h, MTT; for morphologies of methylglyoxal-treated SH-SY5Y cells: 10 µM, 500 µM methylglyoxal, photographs, 200-fold. As for the experimental part: The SH-SY5Y cells (1 × 10^4 cells/well) were seeded onto a 96-well microplate and cultured in a DMEM/F-12 medium containing 10% FBS for 24 h at 37 °C under a humidified atmosphere and 5% CO2. The cultural medium was removed, and the different concentrations of hispolon (No.1), No.6, and No.7 or 0.1% DMSO (the control and the blank) were added and incubated at 37 °C in a humidified atmosphere with 5% CO2 for 24 h. The treated medium was removed, washed with PBS, and 500 µM MGO in PBS were added to the medium for another 24 h culture. The equal aliquot of PBS was added in the blank.

The subject of another data set is PC12 cells. Nature of the data set: Neurite outgrowths in PC12 pheochromocytoma cells. To be noted: 3-day treatment, blank 3.62 ± 1.62 μm. It is filed as cell-based, rat. As for the experimental part:
The PC12 cells (5 × 10^3/well) were seeded in poly-L-lysine coated 96-well plate and cultured in RPMI-640 medium supplemented with 10% horse serum, 5% FBS, 100 U/ml penicillin and 100 mg/l streptomycin for 24 h at 37 °C under the humidified atmosphere and 5% CO2. […] The DMSO was used instead of the sample solution as the blank. After an interval of 3 days, the cell morphologies were photographed using an inverted microscope (200-fold magnifications, ECLIPSE TS100, Nikon Instruments Inc., Tokyo, Japan).

Data set [5] relates to scopolamine-induced ICR mice. Nature of the data set: Passive avoidance test in scopolamine-induced cognitive dysfunction ICR mice. It is filed as in vivo. To be noted: scopolamine 1 mg/kg i.p., P < 0.05.
Source text: The 5-week-old (N = 30) male ICR mice were purchased from the Laboratory Animal Center in College of Medicine, National Taiwan University, and were housed in wire-bottomed stainless-steel cages and had free access to normal feeds (Prolab^Ⓡ RMH2500, MO) and water, which these cages were placed in an environmental controlled space under a 12-h light/dark cycle. After at least one-week acclimation, the mice were randomly divided into six groups, including the blank, the control, the positive control (donepezil-intervened), and the sample pre-treated groups (No.1, No.6, and No.7 groups). […] For mice in the blank, the control, and the positive control, mice were orally received the same volume of distilled water once daily for 10 days in the parallel experiments. In the second stage of animal experiments during day 11 to day 15, mice in the blank, the control, and the sample groups were treated as reported in the first stage, and mice in the positive control group were treated with donepezil (5 mg/kg) orally once a day by gavage feeding, and 30 min later, mice in the control, sample groups, and positive control were injected intraperitoneally with scopolamine (1 mg/kg, dissolved in PBS), and mice in the blank were injected with the same volume of PBS. At day 13 to day 15, after being injected with scopolamine or the same volume of PBS for 30 min, mice in each group were evaluated learning behaviours by the passive avoidance test. The passive avoidance apparatus, a computerized chamber (PACS-30, Columbus Instruments Inc., Columbus, OH) separated by a sliding guillotine door, is composed of a LED light box and a dark box. At the first day of the acquisition trial (day 13), the guillotine door was opened and each mouse was placed in the LED light box. In case the mouse entered the dark box, the automatic and computerized sliding guillotine door was closed, the entered mouse in the dark box received an electric foot shock (0.3 mA for 3 s) delivered via the wired metal floor and then sent back to the cage. The staying time in the light box (the step-through latency, sec) was recorded. The protocol in the second day (day 14) was the same as the first day. If the mouse stayed in the light box longer than 300 s, and the mouse was expelled into light box and received the same electric foot shocks. At the third day (day 15) of the retention trial, each mouse was placed again in the light box, and the staying time in the light box was recorded. The maximum time was 300 s.
The test system of another data set is soluble Aβ protofibrils. To be noted: intravenously every 2 weeks, 10 mg/kg of body weight, 18 months; ref van Dyck et al. [2023]; cited from earlier work.
The mark [6] stands for this setting: 40 mg/kg orally once daily, 10-day pre-treatment and days 11-15.

T1 sequence (P22303 32-614): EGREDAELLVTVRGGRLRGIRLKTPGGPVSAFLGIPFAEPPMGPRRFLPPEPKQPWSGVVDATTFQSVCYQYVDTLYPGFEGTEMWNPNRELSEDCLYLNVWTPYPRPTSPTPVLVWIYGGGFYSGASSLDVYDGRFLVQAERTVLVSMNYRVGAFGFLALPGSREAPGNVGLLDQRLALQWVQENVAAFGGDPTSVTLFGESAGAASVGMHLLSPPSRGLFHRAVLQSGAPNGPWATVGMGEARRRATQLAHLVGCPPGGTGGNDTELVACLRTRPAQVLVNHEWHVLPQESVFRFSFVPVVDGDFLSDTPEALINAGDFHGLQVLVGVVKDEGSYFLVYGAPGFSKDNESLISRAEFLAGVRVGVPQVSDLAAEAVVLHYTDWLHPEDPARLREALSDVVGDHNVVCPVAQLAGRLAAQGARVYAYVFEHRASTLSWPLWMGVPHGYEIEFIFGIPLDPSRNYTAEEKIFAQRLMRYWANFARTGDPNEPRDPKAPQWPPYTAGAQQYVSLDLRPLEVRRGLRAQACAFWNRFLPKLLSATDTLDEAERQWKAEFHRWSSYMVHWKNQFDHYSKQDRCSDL

As for `CC(=O)CC(=O)/C=C/c1cc(O)c(O)c(O)c1` [No.2, 5-hydroxy hispolon], the IC50 in data set [1] is 28.3 µM; on recombinant human AChE, > 1 mM; on Aβ1-42 peptide, 340 nM and 335 nM.

Turning to `COc1cc(/C=C/C(=O)CC(C)=O)cc(O)c1O` [No.3, 5-methoxyhispolon], the IC50 in [1] was 21 µM; on recombinant human AChE, > 1 mM; at Aβ1-42 peptide, 350 nM and 354 nM.

Take `COc1cc(/C=C/C(=O)CC(C)=O)cc(OC)c1OC` [No.5, 5-methoxyhispolon dimethyl ether]: the IC50 is > 100 µM in data set [1], > 1 mM at recombinant human AChE and > 20000 nM at Aβ1-42 peptide.

Take `CC(=O)CC(=O)/C=C/c1ccc(O)c(O)c1` [No.1, Hispolon]: the results for the IC50 (in [1]; at recombinant human AChE; on Aβ1-42 peptide) were 32.3 µM, 0.828 mM and 1410 nM, respectively. Also, the “relative nitric oxide productions (control = 100%)” value in the data set with RAW264.7 macrophages [2] turned out to be 70%. The “cytotoxicity toward RAW264.7 macrophages” value was “no apparent toxicities” in the data set on RAW264.7 macrophages [3] (2.5 µM); “showed cytotoxicities toward RAW264.7 macrophages” in the data set on RAW264.7 macrophages [3] (5, 10 and 20 µM). Besides, the “cell viabilities of methylglyoxal-treated SH-SY5Y cells compared to the control” value (shortened to “cell viabilities … compared to the control”) in data set [4] (5 and 10 µM) was “no significant difference was found compared to those in the control”. Moreover, the “average neurite lengths of PC12 cells” value with PC12 cells (1 µM) was 8.02 ± 3.14 μm; in the data set on PC12 cells (2 µM) it was 8.49 ± 3.61 μm. Also, the “step-through latency in the retention trial (day 15) compared to the control” value (from here on “step-through latency … compared to the control”) in data set [5] (setting [6]) is “prolong the staying time in the light box”.

As to `CC(=O)CC(=O)/C=C/c1ccc(O)c(O)c1O` [No.6, 2-hydroxy hispolon], the results for the IC50 (in [1]; at recombinant human AChE; on Aβ1-42 peptide) were 38.2 µM, 0.286 mM and 1030 nM, respectively. The “morphologies of methylglyoxal-treated SH-SY5Y cells” value in data set [4] was “recover parts of methylglyoxal-damaged neuritic lengths and restore pyramidal shapes”. Besides, the “cell viabilities … compared to the control” value in [4] (1, 2, 5 and 10 µM) is given as “had significant differences compared to those in the control”. The “average neurite lengths of PC12 cells” value in the data set on PC12 cells (1 µM) is 8.50 ± 3.48 μm; in the data set with PC12 cells (2 µM), 7.01 ± 3.11 μm. For the same molecule, the “step-through latency … compared to the control” value in data set [5] (setting [6]) was “prolong the staying time in the light box”.

For the molecule `COc1cc(/C=C/C(=O)CC(C)=O)cc(OC)c1O` [No.4, 5-methoxyhispolon monomethyl ether], the IC50 is 79.4 µM in data set [1], > 1 mM on recombinant human AChE and 12400 nM at Aβ1-42 peptide.

For `COc1c(O)ccc(/C=C/C(=O)CC(C)=O)c1O` [No.7, 2-hydroxy hispolon monomethyl ether], the concentration for half-maximal inhibition (IC50) is 37.3 µM in data set [1]; > 1 mM at recombinant human AChE; 950 nM and 953 nM at Aβ1-42 peptide. In addition, the “morphologies of methylglyoxal-treated SH-SY5Y cells” value in data set [4] is “recover parts of methylglyoxal-damaged neuritic lengths and restore pyramidal shapes”. Further, in data set [4] (1, 2, 5 and 10 µM), the “cell viabilities … compared to the control” value is listed as “had significant differences compared to those in the control”. Also, the “average neurite lengths of PC12 cells” value with PC12 cells (1 µM) was 5.40 ± 1.96 μm; in the data set on PC12 cells (2 µM), 8.05 ± 4.69 μm. In addition, the “step-through latency … compared to the control” value in [5] (setting [6]) is “prolong the staying time in the light box”.

Take `COc1cc2c(cc1OC)C(=O)C(CC1CCN(Cc3ccccc3)CC1)C2` (centres unmarked) [donepezil, donepezil hydrochloride, reference compound]: the “step-through latency … compared to the control” value in data set [5] (5 mg/kg orally once a day, days 11-15, positive control) was “prolong the staying time in the light box”.

Regarding NGF, the “average neurite lengths of PC12 cells” value in the data set on PC12 cells (100 ng/ml, positive control) is 9.18 ± 4.87 μm.

B1: lecanemab (antibody, chains of the INN, looked up, V domains shown)
VH: EVQLVESGGGLVQPGGSLRLSCSASGFTFSSFGMHWVRQAPGKGLEWVAYISSGSSTIYYGDTVKGRFTISRDNAKNSLFLQMSSLRAEDTAVYYCAREGGYYYGRSYYTMDYWGQGTTVTVSS
VL: DVVMTQSPLSLPVTPGAPASISCRSSQSIVHSNGNTYLEWYLQKPGQSPKLLIYKVSNRFSGVPDRFSGSGSGTDFTLRISRVEAEDVGIYYCFQGSHVPPTFGPGTKLEIK
Turning to B1, the “less cognitive decline in CDR-SB change between baseline and last visit compared to placebo” value in the data set with soluble Aβ protofibrils is 27%.
